Experimental data as given in patent US20040116420A1 (priority 2001, published 2004).
pIC50: −log10 of the molar value.

Key:
HSV-1 = assay: Antiviral activity, HSV-1 in Vero cells, plaque method; type: cell-based; details: Human alphaherpesvirus 1, 20 hours, 90% inhibition of plaque formation
Procedure, shortened: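 This is a virus-yield read-out. The culture medium was frozen at −80° C and thawed, and the plaques it formed were counted. It came from Vero monolayers infected with 50,000 pfu HSV-1 and then exposed to the compound for 20 h at 37° C. EC90 is the concentration inhibiting 90% of plaque formation relative to the untreated infected control.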

HSV-1 protease = molecular target: T1, HSV-1 protease (Human herpesvirus 1, UniProt P10210); assay: Enzymatic assay for HSV-1 protease (assembly) inhibitor, fluorescence polarization; type: biochemical; details: read-out: HSV-1 Enzyme inhibition IC50
T1 construct: 6xHis (N); made in house; host or cells: baculovirus expression system
T1 sequence (P10210 1-247): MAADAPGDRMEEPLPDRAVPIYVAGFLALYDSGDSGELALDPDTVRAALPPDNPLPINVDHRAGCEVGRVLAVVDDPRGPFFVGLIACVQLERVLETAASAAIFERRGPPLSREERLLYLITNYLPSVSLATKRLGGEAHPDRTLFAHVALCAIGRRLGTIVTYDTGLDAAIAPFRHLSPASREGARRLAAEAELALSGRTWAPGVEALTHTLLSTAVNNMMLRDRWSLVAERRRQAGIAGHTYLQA
Procedure, shortened: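 Fluorescence polarization read-out: after avidin stop, cleavage of a biotinylated DTAF-labelled release-site peptide by recombinant N-His6 HSV-1 protease was compared with no-inhibitor wells. Enzyme and compound were preincubated 30 min, then substrate reacted 60 min, all at room temperature, pH 7.4 citrate buffer with TCEP.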

Vero cells = assay: Cytotoxicity, Vero cells, Alamar Blue; type: cell-based; details: 25 μM, 20 hours
Procedure, shortened: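 Living-cell ratio versus untreated control was read by Alamar Blue absorbance after about 6 h of dye incubation. Before that, Vero cells had received 25 μM test compound in 2% FBS-DMEM for 20 hours at 37 °C under 5% CO2.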

Row | Structure (SMILES) | EC90 (HSV-1) [µM] | pIC50 (HSV-1 protease) | Cell viability (% of control) (Vero cells) [%]
1 | Cc1c(NC(=O)c2cc(Cl)sc2Cl)ccc2nc(NC(C)(C)C(=O)N(C)CCc3ccccn3)oc(=O)c12 [Compound No.181, 2,5-Dichloro-thiophene-3-carboxylic acid (5-methyl-2-{1-methyl-1-[methyl-(2-pyridin-2-yl-ethyl)-carbamoyl]-ethylamino}-4-oxo-4H-benzo[d][1,3]oxazin-6-yl)-amide] | 10.9 | 5.74 | 44.3
2 | Cc1c(NC(=O)OC(C)(C)C)ccc2nc(NC(C)(C)C(=O)N(C)CCc3ccncc3)oc(=O)c12 [Compound No.51, (5-Methyl-2-{1-methyl-1-[methyl-(2-pyridin-4-yl-ethyl)-carbamoyl]-ethylamino}-4-oxo-4H-benzo[d][1,3]oxazin-6-yl)-carbamic acid tert-butyl ester] | 9.3 | 6.22 | 106.0
3 | Cc1c(NC(=O)OC(C)(C)C)ccc2nc(N(C)[C@@H](C)C(=O)N(C)CCc3cccnc3)oc(=O)c12 [Compound No.77, [5-Methyl-2-(methyl-{1S-[methyl-(2-pyridin-3-yl-ethyl)-carbamoyl]-ethyl}-amino)-4-oxo-4H-benzo[d][1,3]oxazin-6-yl]-carbamic acid tert-butyl ester] | > 12.5 | 5.74 | 94.4
4 | Cc1c(NC(=O)OC(C)(C)C)ccc2nc(N[C@H](C(=O)N(C)CCc3ccncc3)C(C)C)oc(=O)c12 [Compound No.53, (5-Methyl-2-{2-methyl-1S-[methyl-(2-pyridin-4-yl-ethyl)-carbamoyl]-propylamino}-4-oxo-4H-benzo[d][1,3]oxazin-6-yl)-carbamic acid tert-butyl ester] | 6.1 | 5.57 | 106.0
5 | Cc1c(NC(=O)OC(C)(C)C)ccc2nc(N[C@H](C(=O)N(C)CCc3cccnc3)C(C)C)oc(=O)c12 [Compound No.67, (5-Methyl-2-{2-methyl-1S-[methyl-(2-pyridin-3-yl-ethyl)-carbamoyl]-propylamino}-4-oxo-4H-benzo[d][1,3]oxazin-6-yl)-carbamic acid tert-butyl ester] | 5.3 | 5.82 | 96.5
6 | Cc1c(NC(=O)OC(C)(C)C)ccc2nc(N[C@@H](CC(C)C)C(=O)NCc3cccnc3)oc(=O)c12 [Compound No.37, (5-Methyl-2-{3-methyl-1S-[(pyridin-3-ylmethyl)-carbamoyl]-butylamino}-4-oxo-4H-benzo[d][1,3]oxazin-6-yl)-carbamic acid tert-butyl ester] | 15 | 5.34 | 105.0
7 | Cc1c(NC(=O)OC(C)(C)C)ccc2nc(N3C[C@H](OCc4ccccc4)C[C@H]3C(=O)NCCc3ccccn3)oc(=O)c12 [Compound No.112, {2-[4R-Benzyloxy-2S-(2-pyridin-2-ylethylcarbamoyl)-pyrrolidin-1-yl]-5-methyl-4-oxo-4H-benzo[d][1,3]oxazin-6-yl}-carbamic acid tert-butyl ester] | 10.7 | 5.57 | 84.2
8 | Cc1c(NC(=O)OC(C)(C)C)ccc2nc(N[C@@H](CC3CCCCC3)C(=O)NCCc3ccccn3)oc(=O)c12 [Compound No.29, {2-[2-Cyclohexyl-1S-(2-pyridin-2-ylethylcarbamoyl)-ethylamino]-5-methyl-4-oxo-4H-benzo[d][1,3]oxazin-6-yl}-carbamic acid tert-butyl ester] | 24.3 | 4.71 | 110.0
9 | Cc1c(NC(=O)OC(C)(C)C)ccc2nc(N3C[C@H](OCc4ccccc4)C[C@H]3C(=O)NCc3ccncc3)oc(=O)c12 [Compound No.111, (2-{4R-Benzyloxy-2S-[(pyridin-4-ylmethyl)-carbamoyl]-pyrrolidin-1-yl}-5-methyl-4-oxo-4H-benzo[d][1,3]oxazin-6-yl)-carbamic acid tert-butyl ester] | 7.8 | 5.48 | 80.4
10 | Cc1c(NC(=O)OC(C)(C)C)ccc2nc(N[C@@H](CCc3ccccc3)C(=O)NCc3ccncc3)oc(=O)c12 [Compound No.41, (5-Methyl-4-oxo-2-{3-phenyl-1S-[(pyridin-4-ylmethyl)-carbamoyl]-propylamino}-4H-benzo[d][1,3]oxazin-6-yl)-carbamic acid tert-butyl ester] | > 25 | 5.25 | 101.0
11 | Cc1c(NC(=O)OC(C)(C)C)ccc2nc(N[C@@H](CC3CCCCC3)C(=O)NCc3ccncc3)oc(=O)c12 [Compound No.28, (2-{2-Cyclohexyl-1S-[(pyridin-4-ylmethyl)-carbamoyl]-ethylamino}-5-methyl-4-oxo-4H-benzo[d][1,3]oxazin-6-yl)-carbamic acid tert-butyl ester] | < 6.3 | 5.36 | 70.0
12 | Cc1c(NC(=O)OC(C)(C)C)ccc2nc(N[C@@H](CCc3ccccc3)C(=O)NCCc3ccccn3)oc(=O)c12 [Compound No.42, {5-Methyl-4-oxo-2-[3-phenyl-1S-(2-pyridin-2-yl-ethylcarbamoyl)-propylamino]-4H-benzo[d][1,3]oxazin-6-yl}-carbamic acid tert-butyl ester] | 10.7 | 6.00 | 83.0
13 | Cc1c(NC(=O)OC(C)(C)C)ccc2nc(N(C)[C@@H](Cc3ccccc3)C(=O)NCc3cccnc3)oc(=O)c12 [Compound No.79, [5-Methyl-2-(methyl-{2-phenyl-1S-[(pyridin-3-ylmethyl)-carbamoyl]-ethyl}-amino)-4-oxo-4H-benzo[d][1,3]oxazin-6-yl]-carbamic acid tert-butyl ester] | 6 | 6.00 | 38.5
14 | Cc1c(NC(=O)OC(C)(C)C)ccc2nc(N(C)[C@@H](Cc3ccccc3)C(=O)N(C)CCc3cccnc3)oc(=O)c12 [Compound No.84, [5-Methyl-2-(methyl-{1S-[methyl-(2-pyridin-3-yl-ethyl)-carbamoyl]-2-phenyl-ethyl}-amino)-4-oxo-4H-benzo[d][1,3]oxazin-6-yl]-carbamic acid tert-butyl ester] | 11 | 5.77 | 37.6
15 | Cc1c(NC(=O)OC(C)(C)C)ccc2nc(N[C@@H](CC3CCCCC3)C(=O)N(C)CCc3cccnc3)oc(=O)c12 [Compound No.69, (2-{2-Cyclohexyl-1S-[methyl-(2-pyridin-3-yl-ethyl)-carbamoyl]-ethylamino}-5-methyl-4-oxo-4H-benzo[d][1,3]oxazin-6-yl)-carbamic acid tert-butyl ester] | < 3.2 | 5.44 | 49.5
16 | Cc1c(NC(=O)OC(C)(C)C)ccc2nc(N(C)[C@@H](Cc3ccccc3)C(=O)N(C)CCc3ccncc3)oc(=O)c12 [Compound No.85, [5-Methyl-2-(methyl-{1S-[methyl-(2-pyridin-4-yl-ethyl)-carbamoyl]-2-phenyl-ethyl}-amino)-4-oxo-4H-benzo[d][1,3]oxazin-6-yl]-carbamic acid tert-butyl ester] | 11.7 | 5.64 | 60.7
17 | Cc1c(NC(=O)OC(C)(C)C)ccc2nc(N3CCC[C@H]3C(=O)NCCc3ccccn3)oc(=O)c12 [Compound No.89, {5-Methyl-4-oxo-2-[2S-(2-pyridin-2-ylethylcarbamoyl)-pyrrolidin-1-yl]-4H-benzo[d][1,3]oxazin-6-yl}-carbamic acid tert-butyl ester] | > 12.5 | 5.85 | 92.6
18 | Cc1c(NC(=O)OC(C)(C)C)ccc2nc(N3CCC[C@H]3C(=O)N(C)CCc3ccccn3)oc(=O)c12 [Compound No.91, (5-Methyl-2-{2S-[methyl-(2-pyridin-2-yl-ethyl)-carbamoyl]-pyrrolidin-1-yl}-4-oxo-4H-benzo[d][1,3]oxazin-6-yl)-carbamic acid tert-butyl ester] | > 12.5 | < 4.70 | 92.3
19 | Cc1c(NC(=O)OC(C)(C)C)ccc2nc(N[C@@H](CC3CCCCC3)C(=O)N(C)CCc3ccncc3)oc(=O)c12 [Compound No.55, (2-{2-Cyclohexyl-1S-[methyl-(2-pyridin-4-yl-ethyl)-carbamoyl]-ethylamino}-5-methyl-4-oxo-4H-benzo[d][1,3]oxazin-6-yl)-carbamic acid tert-butyl ester] | 5.9 | 5.13 | 43.8
20 | COCC(=O)Nc1ccc2nc(NC(C)(C)C(=O)N(C)CCc3ccccn3)oc(=O)c2c1C [Compound No.137, 2-[6-(2-Methoxy-acetylamino)-5-methyl-4-oxo-4H-benzo[d][1,3]oxazin-2-ylamino]-2,N-dimethyl-N-(2-pyridin-2-yl-ethyl)-propionamide] | > 12.5 | 5.38 | 98.2
21 | Cc1c(NC(=O)c2ccc(C(C)(C)C)cc2)ccc2nc(NC(C)(C)C(=O)N(C)CCc3ccccn3)oc(=O)c12 [Compound No.168, 4-tert-Butyl-N-(5-methyl-2-{1-methyl-1-[methyl-(2-pyridin-2-yl-ethyl)-carbamoyl]-ethylamino}-4-oxo-4H-benzo[d][1,3]oxazin-6-yl)-benzamide] | 3.6 | 5.89 | 16.8
